The text below walks through data of US20240254082A1, “Substituted Isoindoline-1, 3-diketone PDE4 Inhibitor and Pharmaceutical Application Thereof” (SUZHOU INTRAGRAND PHARMA CO., LTD, priority 2021, published 2024).

What all share (format): biochemical
One assay addresses PDE4D3 (Homo sapiens, UniProt Q08499). As to the kind of experiment: Inhibition assay of PDE4D3 enzyme (TR-FRET kit). On the procedure: 2. Inhibition assay of PDE4D3 enzyme:
Materials and Instruments:
FAM substrate: A stock solution of 20 μM FAM substrate was diluted to 200 nM with PDE assay buffer. 12.5 μL of the diluted substrate was added to each reaction well.
5 μL of the compound stock solution was added to 45 μL of DMSO to prepare a 1 mM diluent. 5 μL of the 1 mM diluent was added to 45 μL of PDE assay buffer to prepare a gradient dilution starting point. Then, according to the method of adding 5 μL of the previous concentration solution to 15 μL of PDE assay buffer, gradient dilution was carried out for 9 times to prepare compound working solutions with 10 concentrations. The working solutions were added to compound wells at 2.5 μL/well.
PDE4D3: 0.054 μL of a PDE4D3 recombinase stock solution was added to 1500 μL of PDE buffer, and the mixture was added to all compound wells and positive control wells at 10 μL/well. 10 μL of PDE assay buffer was added to substrate control wells.
Binding solution: 3750 μL of binding buffer A and 3750 μL of binding buffer B were mixed well. Then, 150 μL of a binder was added into the mixture and mixed well. 7.5 μL of a Tb donor was added and mixed well. The obtained mixture was added to all wells at 50 μL/well.
S520=Read value of sample 520 nm
S490=Read value of sample 490 nm
Tb520=Read value of Tb only 520 nm
Tb490=Read value of Tb only 490 nm
FRETp=Positive control FRET
FRETsub=Substrate control FRET.
(TR-FRET usually uses a lanthanide donor and a delayed reading to cut background.)

The next assay deals with PDE10A1 (Homo sapiens, UniProt Q9Y233). The assay can be described thus: Selective inhibitory activity assay, PDE10A1. The following applies: read-out: Inhibition rate (%) of PDE10A1. The method, then:
(§1) 7. Selective inhibitory activity assay for PDE1, 2, 3, 5, 7, 10 and 11 enzymes
(§2) The selective specificity of compounds for PDE4 was assessed by assaying single concentrations of the compounds. For example, PDE1a enzyme, PDElc enzyme, PDE2a enzyme, PDE3a enzyme, PDE3b enzyme, PDE5a1 enzyme, PDE7a enzyme, PDE7b enzyme, PDE10a1 enzyme and PDE11a4 enzyme were tested. The selective inhibitory effects of different compounds on the enzymatic activities of PDEIC, PDE2A, PDE3B, PDE5A1, PDE7A, and PDE10A1 at concentrations of 10 μM and 1 μM, respectively, are shown in the table below: […]

A further assay has as its target PDE7A (Homo sapiens, UniProt Q13946). As to the kind of experiment: Selective inhibitory activity assay, PDE7A. The following applies: read-out: Inhibition rate (%) of PDE7A. On the procedure: as §1, §2
A further assay concerns the target PDE2A (Homo sapiens, UniProt O00408). As to the kind of experiment: Selective inhibitory activity assay, PDE2A. The settings on record: read-out: Inhibition rate (%) of PDE2A. On the procedure: as §1, §2
In another assay the target is PDE3B (Homo sapiens, UniProt Q13370). As to the kind of experiment: Selective inhibitory activity assay, PDE3B. The following applies: read-out: Inhibition rate (%) of PDE3B. On the procedure: as §1, §2
For another assay, the target named is PDE1C (Homo sapiens, UniProt Q14123). As to the kind of experiment: Selective inhibitory activity assay, PDE1C. The following applies: read-out: Inhibition rate (%) of PDE1C. On the procedure:
as §1, §2

Another assay has as its target PDE5A1 (Homo sapiens, UniProt O76074). The assay can be described thus: Selective inhibitory activity assay, PDE5A1. The following applies: read-out: Inhibition rate (%) of PDE5A1. On the procedure: as §1, §2

Sequence of PDE4D3 (Q08499 1-673 isoform Q08499-2): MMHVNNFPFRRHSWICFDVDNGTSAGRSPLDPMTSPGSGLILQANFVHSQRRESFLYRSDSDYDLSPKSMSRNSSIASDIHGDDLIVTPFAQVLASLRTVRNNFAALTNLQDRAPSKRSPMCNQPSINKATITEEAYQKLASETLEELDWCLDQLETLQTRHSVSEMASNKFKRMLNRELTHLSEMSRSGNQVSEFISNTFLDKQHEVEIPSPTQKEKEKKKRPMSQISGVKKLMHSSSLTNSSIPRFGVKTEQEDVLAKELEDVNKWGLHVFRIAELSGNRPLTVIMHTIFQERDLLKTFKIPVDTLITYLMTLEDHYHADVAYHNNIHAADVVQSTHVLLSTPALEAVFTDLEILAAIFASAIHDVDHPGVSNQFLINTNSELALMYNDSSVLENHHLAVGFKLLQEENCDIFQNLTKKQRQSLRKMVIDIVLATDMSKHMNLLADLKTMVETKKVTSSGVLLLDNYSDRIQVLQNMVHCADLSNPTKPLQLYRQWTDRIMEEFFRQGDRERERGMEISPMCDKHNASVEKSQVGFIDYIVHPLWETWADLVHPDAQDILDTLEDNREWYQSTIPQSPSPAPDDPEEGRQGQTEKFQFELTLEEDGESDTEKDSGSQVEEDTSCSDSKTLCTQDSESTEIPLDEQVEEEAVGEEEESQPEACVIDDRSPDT
Sequence of PDE2A (O00408 whole entry, species assumed): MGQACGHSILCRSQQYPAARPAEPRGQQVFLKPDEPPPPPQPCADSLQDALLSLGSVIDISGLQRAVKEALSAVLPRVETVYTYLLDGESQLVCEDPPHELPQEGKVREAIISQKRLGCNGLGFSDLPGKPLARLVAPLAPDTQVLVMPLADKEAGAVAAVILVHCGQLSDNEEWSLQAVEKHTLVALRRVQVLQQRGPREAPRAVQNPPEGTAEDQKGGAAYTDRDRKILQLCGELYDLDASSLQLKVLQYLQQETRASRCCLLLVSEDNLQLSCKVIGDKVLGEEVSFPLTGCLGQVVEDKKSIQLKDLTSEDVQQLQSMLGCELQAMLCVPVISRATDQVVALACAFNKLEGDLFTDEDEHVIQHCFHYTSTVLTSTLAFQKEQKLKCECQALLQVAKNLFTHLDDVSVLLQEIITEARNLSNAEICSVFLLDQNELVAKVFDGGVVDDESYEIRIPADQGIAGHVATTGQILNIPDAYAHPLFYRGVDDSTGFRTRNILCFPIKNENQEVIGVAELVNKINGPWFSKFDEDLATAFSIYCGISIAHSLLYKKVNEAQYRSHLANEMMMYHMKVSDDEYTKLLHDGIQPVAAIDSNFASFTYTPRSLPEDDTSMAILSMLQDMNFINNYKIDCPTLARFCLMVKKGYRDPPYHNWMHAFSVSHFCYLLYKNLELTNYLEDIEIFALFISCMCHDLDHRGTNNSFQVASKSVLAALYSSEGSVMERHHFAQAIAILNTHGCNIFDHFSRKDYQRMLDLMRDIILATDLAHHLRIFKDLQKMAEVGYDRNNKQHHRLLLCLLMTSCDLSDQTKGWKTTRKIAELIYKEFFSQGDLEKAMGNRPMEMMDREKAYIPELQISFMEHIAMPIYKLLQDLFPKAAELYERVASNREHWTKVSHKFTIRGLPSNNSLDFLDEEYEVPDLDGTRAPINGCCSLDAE
Sequence of PDE7A (Q13946 whole entry, species assumed): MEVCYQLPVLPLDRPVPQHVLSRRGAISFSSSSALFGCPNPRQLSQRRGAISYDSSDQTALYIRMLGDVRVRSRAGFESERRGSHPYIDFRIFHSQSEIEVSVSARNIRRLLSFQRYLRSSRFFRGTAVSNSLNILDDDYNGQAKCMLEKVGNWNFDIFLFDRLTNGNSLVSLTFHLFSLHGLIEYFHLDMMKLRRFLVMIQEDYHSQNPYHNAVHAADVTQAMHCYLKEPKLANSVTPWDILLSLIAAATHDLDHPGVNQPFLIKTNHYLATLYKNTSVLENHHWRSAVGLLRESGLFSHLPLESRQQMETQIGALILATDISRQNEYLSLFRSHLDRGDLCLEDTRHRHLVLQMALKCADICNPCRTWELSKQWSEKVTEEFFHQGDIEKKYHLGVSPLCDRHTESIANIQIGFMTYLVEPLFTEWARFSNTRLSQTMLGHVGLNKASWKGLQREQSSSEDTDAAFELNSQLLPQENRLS
Sequence of PDE1C (Q14123 whole entry, species assumed): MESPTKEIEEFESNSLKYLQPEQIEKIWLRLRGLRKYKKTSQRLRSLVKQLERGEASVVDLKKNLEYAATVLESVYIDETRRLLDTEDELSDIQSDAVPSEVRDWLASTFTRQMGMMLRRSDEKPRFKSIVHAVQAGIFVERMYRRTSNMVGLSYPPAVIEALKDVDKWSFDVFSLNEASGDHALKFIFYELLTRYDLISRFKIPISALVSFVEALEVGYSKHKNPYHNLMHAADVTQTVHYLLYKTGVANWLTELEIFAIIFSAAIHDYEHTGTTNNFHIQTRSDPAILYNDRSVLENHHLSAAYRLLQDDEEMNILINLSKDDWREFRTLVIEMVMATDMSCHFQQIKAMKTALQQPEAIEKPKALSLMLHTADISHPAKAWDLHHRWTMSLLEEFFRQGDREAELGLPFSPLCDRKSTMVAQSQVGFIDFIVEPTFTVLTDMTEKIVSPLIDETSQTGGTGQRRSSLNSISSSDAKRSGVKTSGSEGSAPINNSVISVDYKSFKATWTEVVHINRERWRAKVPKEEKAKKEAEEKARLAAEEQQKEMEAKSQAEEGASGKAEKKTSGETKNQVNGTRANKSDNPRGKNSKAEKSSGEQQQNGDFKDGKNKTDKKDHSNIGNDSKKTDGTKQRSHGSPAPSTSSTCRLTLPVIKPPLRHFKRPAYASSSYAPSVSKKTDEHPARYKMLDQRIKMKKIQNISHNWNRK
Sequence of PDE3B (Q13370 whole entry, species assumed): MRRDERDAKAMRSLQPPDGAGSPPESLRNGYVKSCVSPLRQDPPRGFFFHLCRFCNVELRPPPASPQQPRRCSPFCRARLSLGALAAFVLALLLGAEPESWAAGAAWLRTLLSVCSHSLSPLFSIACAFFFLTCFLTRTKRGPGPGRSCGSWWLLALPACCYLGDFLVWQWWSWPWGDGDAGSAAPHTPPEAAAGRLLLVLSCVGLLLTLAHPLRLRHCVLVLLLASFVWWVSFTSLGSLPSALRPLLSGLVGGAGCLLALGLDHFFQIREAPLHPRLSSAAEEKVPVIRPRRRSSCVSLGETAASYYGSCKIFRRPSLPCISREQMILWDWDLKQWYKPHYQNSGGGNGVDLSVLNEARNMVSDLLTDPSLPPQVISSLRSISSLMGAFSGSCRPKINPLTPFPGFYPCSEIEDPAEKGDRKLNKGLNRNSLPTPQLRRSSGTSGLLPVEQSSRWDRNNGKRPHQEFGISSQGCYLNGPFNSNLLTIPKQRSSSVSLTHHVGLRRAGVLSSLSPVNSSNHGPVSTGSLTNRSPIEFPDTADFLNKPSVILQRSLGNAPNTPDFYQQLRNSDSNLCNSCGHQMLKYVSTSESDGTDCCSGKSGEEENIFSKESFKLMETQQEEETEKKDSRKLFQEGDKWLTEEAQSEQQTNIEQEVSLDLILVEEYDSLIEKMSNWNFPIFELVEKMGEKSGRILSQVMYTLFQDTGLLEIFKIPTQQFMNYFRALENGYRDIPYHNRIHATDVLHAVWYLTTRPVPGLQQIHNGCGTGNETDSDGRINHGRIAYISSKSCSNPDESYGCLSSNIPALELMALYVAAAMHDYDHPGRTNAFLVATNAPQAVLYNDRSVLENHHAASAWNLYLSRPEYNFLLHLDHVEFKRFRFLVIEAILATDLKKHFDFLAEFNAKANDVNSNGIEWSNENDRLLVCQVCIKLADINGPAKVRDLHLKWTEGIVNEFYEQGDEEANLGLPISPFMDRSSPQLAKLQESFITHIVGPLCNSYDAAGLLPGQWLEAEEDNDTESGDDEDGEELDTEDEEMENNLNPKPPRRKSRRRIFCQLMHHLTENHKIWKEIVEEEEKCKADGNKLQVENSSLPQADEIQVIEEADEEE
Sequence of PDE10A1 (Q9Y233 1-779 isoform Q9Y233-1, species assumed): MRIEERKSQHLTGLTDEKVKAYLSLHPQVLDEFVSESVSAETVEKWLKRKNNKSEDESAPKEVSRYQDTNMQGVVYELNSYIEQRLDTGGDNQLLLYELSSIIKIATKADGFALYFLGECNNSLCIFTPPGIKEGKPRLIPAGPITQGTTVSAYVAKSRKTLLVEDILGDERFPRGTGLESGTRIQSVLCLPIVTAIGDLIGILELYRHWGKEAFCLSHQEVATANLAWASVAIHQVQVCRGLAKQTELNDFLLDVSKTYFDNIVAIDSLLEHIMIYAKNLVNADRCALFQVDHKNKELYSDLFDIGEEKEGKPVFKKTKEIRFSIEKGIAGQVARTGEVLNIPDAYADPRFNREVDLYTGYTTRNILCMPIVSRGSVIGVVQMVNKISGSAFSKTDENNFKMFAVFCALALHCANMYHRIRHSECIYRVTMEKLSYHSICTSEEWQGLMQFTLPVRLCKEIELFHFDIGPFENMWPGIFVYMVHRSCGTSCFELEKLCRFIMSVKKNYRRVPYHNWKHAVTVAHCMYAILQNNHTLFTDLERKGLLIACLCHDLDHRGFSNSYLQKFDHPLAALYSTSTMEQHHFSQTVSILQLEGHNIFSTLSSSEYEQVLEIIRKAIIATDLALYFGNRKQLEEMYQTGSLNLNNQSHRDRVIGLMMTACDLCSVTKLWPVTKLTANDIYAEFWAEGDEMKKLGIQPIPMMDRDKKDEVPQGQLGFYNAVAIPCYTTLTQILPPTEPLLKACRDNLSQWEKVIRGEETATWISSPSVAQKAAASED

By IC50 is commonly meant the concentration that gives 50% inhibition. A lower IC50 goes with greater potency in that assay. In turn, `CCCCCCc1ccc2c(c1NC(=O)CCCCl)C(=O)N([C@H](CS(C)(=O)=O)c1ccc(OC)c(OCC)c1)C2=O` [Example 1, (S)-2-[1-(3-ethoxy-4-methoxyphenyl)-2-alkylsulfonylethyl]-4-(γ-chlorobutyramido)-5-hexyl isoindoline-1,3-diketone] returned an IC50 against PDE4D3 of 50 to 200 nM.

For the compound `CCCC/C=C/c1ccc2c(c1NC(=O)CCCCl)C(=O)N([C@H](CS(C)(=O)=O)c1ccc(OC)c(OCC)c1)C2=O` [Example 2, (S)-2-[1-(3-ethoxy-4-methoxyphenyl)-2-alkylsulfonylethyl]-4-(γ-chlorobutyramido)-5-hexene (−1) yl isoindoline-1,3-diketone], on PDE4D3, the IC50 was in the range of 10 to 50 nM.

Consider `CCCCCCCCc1cc(NC(=O)C2CC2)c2c(c1)C(=O)N([C@H](CS(C)(=O)=O)c1ccc(OC)c(OCC)c1)C2=O` [Example 3, (S)-2-[1-(3-ethoxy-4-methoxyphenyl)-2-alkylsulfonylethyl]-4-cyclopropanamido-5-octyl isoindoline-1,3-diketone], for which, on PDE4D3, the IC50 is over 200 nM.

`CCCCCc1ccc(CNC(C)=O)c2c1C(=O)N([C@H](CS(C)(=O)=O)c1ccc(OC)c(OCC)c1)C2=O` [Example 4, (S)-2-[1-(3-ethoxy-4-methoxyphenyl)-2-alkylsulfonylethyl]-4-acetamidomethyl-7-pentyl isoindoline-1,3-diketone] had an IC50 at PDE4D3 of 10 to 50 nM.

For `CCCCCc1ccc(NC(=O)C2CC2)c2c1C(=O)N([C@H](CS(C)(=O)=O)c1ccc(OC)c(OCC)c1)C2=O` [Example 6, (S)-2-[1-(3-ethoxy-4-methoxyphenyl)-2-alkylsulfonylethyl]-4-cyclopropanamido-7-pentyl isoindoline-1,3-diketone], at PDE4D3, the IC50 fell in the range of 50 to 200 nM.

Usually inhibition stands for the relative decrease from the control value, in per cent. As for `CCCC#Cc1ccc(NC(C)=O)c2c1C(=O)N([C@H](CS(C)(=O)=O)c1ccc(OC)c(OCC)c1)C2=O` [Example 7], the inhibition at 1 µM was found to be 0% at PDE10A1 (1 μM); 3.87% on PDE7A (1 μM); 0.08% on PDE2A (1 μM); 1.81% on PDE3B (1 μM); 6.8% on PDE1C (1 μM); 0% on PDE5A1 (1 μM). Besides, the inhibition at 10 µM is 1.3% on PDE10A1 (10 μM); 15.5% on PDE7A (10 μM); 2.65% at PDE2A (10 μM); 0.06% on PDE3B (10 μM); 26.5% on PDE1C (10 μM); -2.87% at PDE5A1 (10 μM). Moreover, the IC50 against PDE4D3 lay in the range of 10 to 50 nM.

On PDE4D3, `CCCCCCCCCC(=O)Nc1cccc2c1C(=O)N([C@H](CS(C)(=O)=O)c1ccc(OC)c(OCC)c1)C2=O` [Example 8, (S)-2-[1-(3-ethoxy-4-methoxyphenyl)-2-alkylsulfonylethyl]-4-decanamido-7-pentenyl (−1) isoindoline-1,3-diketone] returned an IC50 of 50 to 200 nM.

Compound `CCCCCc1ccc(NC(=O)CCC)c2c1C(=O)N([C@H](CS(C)(=O)=O)c1ccc(OC)c(OCC)c1)C2=O` [Example 10, (S)-2-[1-(3-ethoxy-4-methoxyphenyl)-2-alkylsulfonylethyl]-4-butylamido-7-pentyl isoindoline-1,3-diketone] showed an IC50 against PDE4D3 of 50 to 200 nM.

Regarding `CCCCCc1ccc(NC(=O)CC(C)C)c2c1C(=O)N([C@H](CS(C)(=O)=O)c1ccc(OC)c(OCC)c1)C2=O` [Example 11], the IC50 on PDE4D3 was over 200 nM.

`CCCCCC(=O)Nc1ccc(CCCCC)c2c1C(=O)N([C@H](CS(C)(=O)=O)c1ccc(OC)c(OCC)c1)C2=O` [Example 12] came in with an IC50 at PDE4D3 of over 200 nM.

As for `CCCCCCCCCCCCCc1ccc(NC(C)=O)c2c1C(=O)N([C@H](CS(C)(=O)=O)c1ccc(OC)c(OCC)c1)C2=O` [Example 14, (S)-2-[1-(3-ethoxy-4-methoxyphenyl)-2-alkylsulfonylethyl]-4-acetamido-7-tridecyl isoindoline-1,3-diketone], the IC50 at PDE4D3 is over 200 nM.

Consider `CCCCCCCCCCCCCc1ccc(NC(=O)C2CC2)c2c1C(=O)N([C@H](CS(C)(=O)=O)c1ccc(OC)c(OCC)c1)C2=O` [Example 15, (S)-2-[1-(3-ethoxy-4-methoxyphenyl)-2-alkylsulfonylethyl]-4-cyclopropanamido-7-tridecyl isoindoline-1,3-diketone], for which the IC50 against PDE4D3 was over 200 nM.

In turn, `CCCCCCCCCc1ccc(NC(=O)CCC)c2c1C(=O)N([C@H](CS(C)(=O)=O)c1ccc(OC)c(OCC)c1)C2=O` [Example 16, (S)-2-[1-(3-ethoxy-4-methoxyphenyl)-2-alkylsulfonylethyl]-4-butylamido-7-nonyl isoindoline-1,3-diketone] displayed an IC50 at PDE4D3 of over 200 nM.

Take `CCCCCCCCCc1ccc(NC(=O)C2CC2)c2c1C(=O)N([C@H](CS(C)(=O)=O)c1ccc(OC)c(OCC)c1)C2=O` [Example 17, (S)-2-[1-(3-ethoxy-4-methoxyphenyl)-2-alkylsulfonylethyl]-4-cyclopropanamido-7-nonyl isoindoline-1,3-diketone]: the IC50 against PDE4D3 was over 200 nM.

Turning to `CCCCCCCCCc1ccc(NC(=O)CC)c2c1C(=O)N([C@H](CS(C)(=O)=O)c1ccc(OC)c(OCC)c1)C2=O` [Example 18, (S)-2-[1-(3-ethoxy-4-methoxyphenyl)-2-alkylsulfonylethyl]-4-propanamido-7-nonyl isoindoline-1,3-diketone], the IC50 at PDE4D3 lay within 50 to 200 nM.

On PDE4D3, `CCCCCCCCCCCCCc1ccc(NC(=O)CC)c2c1C(=O)N([C@H](CS(C)(=O)=O)c1ccc(OC)c(OCC)c1)C2=O` [Example 19, (S)-2-[1-(3-ethoxy-4-methoxyphenyl)-2-alkylsulfonylethyl]-4-propanamido-7-tridecyl isoindoline-1,3-diketone] returned an IC50 of over 200 nM.

With `CCCCCCc1ccc(NC(=O)CCCCl)c2c1C(=O)N([C@H](CS(C)(=O)=O)c1ccc(OC)c(OCC)c1)C2=O` [Example 20, (S)-2-[1-(3-ethoxy-4-methoxyphenyl)-2-alkylsulfonylethyl]-4-(γ-chlorobutyramido)-7-hexyl isoindoline-1,3-diketone], the IC50 against PDE4D3 was 50 to 200 nM.

For `CCCCCCCc1ccc(NC(=O)CCCCl)c2c1C(=O)N([C@H](CS(C)(=O)=O)c1ccc(OC)c(OCC)c1)C2=O` [Example 21, (S)-2-[1-(3-ethoxy-4-methoxyphenyl)-2-alkylsulfonylethyl]-4-(γ-chlorobutyramido)-7-heptyl isoindoline-1,3-diketone], the IC50 at PDE4D3 is over 200 nM.

Compound `CCCCCCCCc1ccc(NC(=O)CCCCl)c2c1C(=O)N([C@H](CS(C)(=O)=O)c1ccc(OC)c(OCC)c1)C2=O` [Example 22, (S)-2-[1-(3-ethoxy-4-methoxyphenyl)-2-alkylsulfonylethyl]-4-(γ-chlorobutyramido)-7-octyl isoindoline-1,3-diketone] had an IC50 at PDE4D3 of over 200 nM.

Take `CCCCCCc1ccc2c(c1NC(=O)CC)C(=O)N([C@H](CS(C)(=O)=O)c1ccc(OC)c(OCC)c1)C2=O` [Example 23, (S)-2-[1-(3-ethoxy-4-methoxyphenyl)-2-alkylsulfonylethyl]-4-propanamido-6-hexyl isoindoline-1,3-diketone]: on PDE4D3, the IC50 was 50 to 200 nM.

Take `CCCCc1ccc(NC(=O)CCl)c2c1C(=O)N([C@H](CS(C)(=O)=O)c1ccc(OC)c(OCC)c1)C2=O` [Example 26, (S)-2-[1-(3-ethoxy-4-methoxyphenyl)-2-alkylsulfonylethyl]-4-chloroacetamido-7-butyl isoindoline-1,3-diketone]: the IC50 on PDE4D3 was 10 to 50 nM.

For the compound `CCCCCc1ccc(NC(=O)CO)c2c1C(=O)N([C@H](CS(C)(=O)=O)c1ccc(OC)c(OCC)c1)C2=O` [Example 30], the IC50 at PDE4D3 lay within 50 to 200 nM.

As for `CCCCCc1ccc(NC(=O)COC)c2c1C(=O)N([C@H](CS(C)(=O)=O)c1ccc(OC)c(OCC)c1)C2=O` [Example 31], the half-maximal inhibitory concentration (IC50) at PDE4D3 is 50 to 200 nM.
